# Like-named read-outs stand apart in the source and are kept apart here.
# Legend:
# Assay type in all cases: in vivo
# [1] = test system: chickweed (common chickweed, Stellaria media); test: Test C postemergence greenhouse test, plant response rating 0-100; settings: Stellaria media, post-emergence
# Outline: (§1)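 Visual rating vs. controls, 0 (no effect) to 100 (complete control), 13–15 d after postemergence treatment. Potted plants, 1- to 4-leaf stage (2–18 cm), greenhouse-held.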
# [2] = test system: kochia (Kochia scoparia); test: as above; settings: Bassia scoparia, post-emergence
# Outline: as §1
# [3] = test system: wild oat (Avena fatua); test: as above; settings: Avena fatua, post-emergence
# Outline: as §1
# [4] = test system: velvetleaf (Abutilon theophrasti); test: Test A pre-/postemergence greenhouse herbicide test, visual injury rating 0-100; settings: Abutilon theophrasti, 240 h, 1000 g ai/ha, read-out: Plant response rating (0 to 100 scale), Velvetleaf
# Outline: (§2)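 Postemergence treatment targeted seedlings 2 to 10 cm high with one to two leaves, while preemergence treatment was a directed spray onto freshly planted loam/sand soil. Injury was scored visually about 10 days later.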
# [5] = test system: large (Lg) crabgrass (Digitaria sanguinalis); test: as above; settings: Digitaria sanguinalis, 240 h, 1000 g ai/ha, read-out: Plant response rating (0 to 100 scale), Crabgrass, Large
# Outline: as §2
# [6] = test system: wheat (Triticum aestivum); test: as above; settings: Triticum aestivum, 240 h, 1000 g ai/ha, read-out: Plant response rating (0 to 100 scale), Wheat
# Outline: as §2
# [7] = test system: corn (Zea mays); test: as above; settings: Zea mays, 240 h, 1000 g ai/ha, read-out: Plant response rating (0 to 100 scale), Corn
# Outline: as §2
# [8] = test system: barnyardgrass (Echinochloa crus-galli); test: as above; settings: Echinochloa crus-galli, 240 h, 1000 g ai/ha, read-out: Plant response rating (0 to 100 scale), Barnyardgrass
# Outline: as §2
# [9] = test system: pigweed (Amaranthus retroflexus); test: as above; settings: Amaranthus retroflexus, 240 h, 1000 g ai/ha, read-out: Plant response rating (0 to 100 scale), Pigweed
# Outline: as §2
# [10] = test system: morningglory (Ipomoea spp.); test: as above; settings: Ipomoea, 240 h, 1000 g ai/ha, read-out: Plant response rating (0 to 100 scale), Morningglory
# Outline: as §2
# [11] = test system: giant foxtail (Setaria faberii); test: as above; settings: Setaria faberi, 240 h, 1000 g ai/ha, read-out: Plant response rating (0 to 100 scale), Foxtail, Giant
# Outline: as §2
# [12] = test system: johnsongrass (Sorghum halepense); test: Test C pre-/postemergence greenhouse test, plant response rating 0-100; settings: Sorghum halepense; for pest or weed control at 62 g/ha: 62 g ai/ha; for pest or weed control at 125 g/ha: 125 g ai/ha; for pest or weed control at 250 g/ha: 250 g ai/ha
# Outline: (§3)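 Pre- and postemergence greenhouse test: seeds sown in loam/sand and treated preemergence, or plants at 2–18 cm (1- to 4-leaf stage) in peat-based medium sprayed postemergence, with compounds in non-phytotoxic solvent plus surfactant. Visual rating versus untreated controls after 13–15 days, 0 (no effect) to 100 (complete control).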
# [13] = test system: winter wheat (Triticum aestivum); test: as above; settings: Triticum aestivum; for plant injury at 62 g/ha: 62 g ai/ha; for plant injury at 125 g/ha: 125 g ai/ha; for plant injury at 250 g/ha: 250 g ai/ha
# Outline: as §3
# [14] = test system: giant foxtail (Setaria faberii); test: as above; settings: Setaria faberi; for pest or weed control at 62 g/ha: 62 g ai/ha; for pest or weed control at 125 g/ha: 125 g ai/ha; for pest or weed control at 250 g/ha: 250 g ai/ha
# Outline: as §3
# [15] = post-emergence, Postemergence, read-out: Plant response rating (0 to 100), Johnsongrass
# [16] = post-emergence, Postemergence, scale 0 to 100
# [17] = pre-emergence, Preemergence, read-out: Plant response rating, Johnsongrass
# [18] = pre-emergence, Preemergence, 500 g ai/ha
# [19] = post-emergence, Postemergence, read-out: Plant response rating (0 to 100), Wheat
# [20] = pre-emergence, Preemergence, read-out: Plant response rating, Wheat
# [21] = post-emergence, Postemergence, read-out: Plant response rating (0 to 100), Foxtail, Giant
# [22] = pre-emergence, Preemergence, read-out: Plant response rating, Foxtail, Giant
compound,measurement,setting,value
"Clc1cc(Cl)cc(-c2n[nH]cc2C(=NN2CCCC2)c2ccccc2)c1 [Compound 30, N-[[3-(3,5-dichlorophenyl)-1H-pyrazol-4-yl]phenylmethylene]-1-pyrrolidinamine]",pest or weed control at 31 g/ha,[1]; 31 g ai/ha,100%
same,pest or weed control at 62 g/ha,[1]; 62 g ai/ha,100%
same,pest or weed control at 125 g/ha,[1]; 125 g ai/ha,100%
same,pest or weed control at 250 g/ha,"[1]; 250 g ai/ha, scale 0 to 100",100%
same,pest or weed control at 62 g/ha,[2]; 62 g ai/ha,40%
same,pest or weed control at 125 g/ha,[2]; 125 g ai/ha,85%
same,pest or weed control at 250 g/ha,"[2]; 250 g ai/ha, scale 0 to 100",98%
same,pest or weed control at 62 g/ha,[3]; 62 g ai/ha,0%
same,pest or weed control at 125 g/ha,[3]; 125 g ai/ha,0%
same,pest or weed control at 250 g/ha,"[3]; 250 g ai/ha, scale 0 to 100",0%
same,pest or weed control at 1000 g/ha,"[4]; post-emergence, Postemergence",100%
same,pest or weed control at 1000 g/ha,"[4]; pre-emergence, Preemergence",0%
same,pest or weed control at 1000 g/ha,"[5]; post-emergence, Postemergence",0%
same,pest or weed control at 1000 g/ha,"[5]; pre-emergence, Preemergence",0%
same,plant injury at 1000 g/ha,"[6]; post-emergence, Postemergence",0%
same,plant injury at 1000 g/ha,"[6]; pre-emergence, Preemergence",0%
same,plant injury at 1000 g/ha,"[7]; post-emergence, Postemergence",0%
same,plant injury at 1000 g/ha,"[7]; pre-emergence, Preemergence",0%
same,pest or weed control at 1000 g/ha,"[8]; post-emergence, Postemergence",0%
same,pest or weed control at 1000 g/ha,"[8]; pre-emergence, Preemergence",0%
same,pest or weed control at 1000 g/ha,"[9]; post-emergence, Postemergence",100%
same,pest or weed control at 1000 g/ha,"[9]; pre-emergence, Preemergence",90%
same,pest or weed control at 1000 g/ha,"[10]; post-emergence, Postemergence",0%
same,pest or weed control at 1000 g/ha,"[10]; pre-emergence, Preemergence",0%
same,pest or weed control at 1000 g/ha,"[11]; post-emergence, Postemergence",0%
same,pest or weed control at 1000 g/ha,"[11]; pre-emergence, Preemergence",0%
same,pest or weed control at 62 g/ha,[12]; [15],0%
same,pest or weed control at 125 g/ha,[12]; [15],0%
same,pest or weed control at 250 g/ha,[12]; [16],0%
same,pest or weed control at 62 g/ha,[12]; [17],0%
same,pest or weed control at 125 g/ha,[12]; [17],0%
same,pest or weed control at 250 g/ha,"[12]; pre-emergence, Preemergence",0%
same,pest or weed control at 500 g/ha,[12]; [18],0%
same,plant injury at 62 g/ha,[13]; [19],0%
same,plant injury at 125 g/ha,[13]; [19],0%
same,plant injury at 250 g/ha,[13]; [16],0%
same,plant injury at 62 g/ha,[13]; [20],0%
same,plant injury at 125 g/ha,[13]; [20],0%
same,plant injury at 250 g/ha,"[13]; pre-emergence, Preemergence",0%
same,pest or weed control at 31 g/ha,"[14]; post-emergence, Postemergence, 31 g ai/ha, read-out: Plant response rating (0 to 100), Foxtail, Giant",0%
same,pest or weed control at 62 g/ha,[14]; [21],0%
same,pest or weed control at 125 g/ha,[14]; [21],0%
same,pest or weed control at 250 g/ha,[14]; [16],0%
same,pest or weed control at 62 g/ha,[14]; [22],0%
same,pest or weed control at 125 g/ha,[14]; [22],0%
same,pest or weed control at 250 g/ha,"[14]; pre-emergence, Preemergence",0%
same,pest or weed control at 500 g/ha,[14]; [18],0%

# Source: patent US10167262B2, “Herbicidal substituted 3-arylpyrazoles” (FMC CORPORATION, priority 2014, dated 2019)
